According to patent publication US10464920B2, “Vicinal primary diamines associated with metal and/or free radical chelation motifs, and active against carbonyl and oxidative stress, and use thereof” (UNIVERSITE AMIENS PICARDIE JULES VERNE, priority 2015, dated 2019):

What was measured:
[1] = system: murine endothelial brain cells (bEnd.3); assay: Anti-apoptotic properties after MGO-induced apoptosis (ELISA) on bEnd.3; type: cell-based; details: bEnd.3, pretreated 30 min with 10 or 100 μM, then 2 mM MGO, 24 h
Description: (§1) The apoptosis of cells is evaluated by an ELISA method using two murine monoconal antibodies with one directed against the DNA and the other against the histones ([…] Cell Death Detection kit, Roche, Meylan, France). This technique makes it possible to specifically measure the mono- and oligo-nucleosomes in the cytoplasmic fraction of the cell lysates.
(§2) Briefly, the cells are inoculated in 96-well or 24-well plates at a rate of 5.10^3 cells/well for the Bend.3 and PC12 and 75.10^3 cells/well for the MRCS in the suitable medium until subconfluence. The cells are then washed with PBS, then treated with various concentrations (10 μM, 100 μM) of the products to be tested in triplicates for 30 min to 1 h (cellules PC12 and Bend.3) or 1 h (cellules MRCS) at 37° C. The solution of MGO (1 mM for the cellules PC12, 2 mM for the cellules Bend.3 and MRCS) is then added for an incubation of 24 h. […] A peroxidase combined with anti-DNA antibodies then reacts in the presence of the substrate thereof, ABTS (diammonium 2,2′-azino-bis(3-ethylbenzothiazoline-6-sulphonate) and H2O2 in order to give a green derivative of which the optical density reflects the level of apoptosis. The measurement of the absorbance is taken at 405 nm using a Perkin Elmer 2103 Envision® microplate reader. A positive control is carried out in the presence of MGO alone. […]

[2] = system: human fibroblasts (MRC-5); assay: Anti-apoptotic properties after MGO-induced apoptosis (ELISA) on MRC-5; type: cell-based; details: MRC-5, pretreated 1 h with 10 or 100 μM, then 2 mM MGO, 24 h
Description: as §1, §2

[3] = system: rat pheochromocytoma cells, treated as neuronal cells (PC12); assay: Anti-apoptotic properties after MGO-induced apoptosis (ELISA) on PC12; type: cell-based; details: 24 h
Description: as §1
Briefly, the cells are inoculated in 96-well or 24-well plates at a rate of 5.10^3 cells/well for the Bend.3 and PC12 and 75.10^3 cells/well for the MRCS in the suitable medium until subconfluence. The cells are then washed with PBS, then treated with various concentrations (10 μM, 100 μM) of the products to be tested in triplicates for 30 min to 1 h (cellules PC12 and Bend.3) or 1 h (cellules MRCS) at 37° C. The solution of MGO (1 mM for the cellules PC12, 2 mM for the cellules Bend.3 and MRCS) is then added for an incubation of 24 h. The concentrations of MGO for each cell type were chosen according to literature and a cytotoxicity test (CCK8) that we conducted. The solution of lyse is then added to each well for 30 min at room temperature. The cell lysates are then centrifuged at 200 g for 10 min. Twenty microliters of this cell lysate is then used for the ELISA according to the procedure described by the supplier. The cell lysates are as such applied to a plate covered with anti-Histones antibodies making it possible to view the fragmentation of the DNA. A peroxidase combined with anti-DNA antibodies then reacts in the presence of the substrate thereof, ABTS (diammonium 2,2′-azino-bis(3-ethylbenzothiazoline-6-sulphonate) and H2O2 in order to give a green derivative of which the optical density reflects the level of apoptosis. The measurement of the absorbance is taken at 405 nm using a Perkin Elmer 2103 Envision® microplate reader. A positive control is carried out in the presence of MGO alone.
The apoptosis of the cells is expressed by the mean±standard deviation of triplicates forming a representative experiment or of three independent experiments conducted in triplicate.

[4] = Formation of adducts with MDA, kinetic study by HPLC; type: physicochemical; details: compound 10 mM, MDA 20 mM, 37° C., after 24 h of reaction; no HPLC separation, trend
Description: The compounds to be tested are incubated at 37° C. in the presence of MGO or of MDA. A kinetic study aiming to report on the formation of adducts with the MGO or MDA is then carried out via HPLC analysis.
The compounds to be tested (30 μmol) are dissolved in PBS (1.5 mL). An aqueous solution (qsp 1.25 mL) of MGO at 40% in water (250 μmol) is then prepared and in parallel, MDA bis-(diOEt)-acetal (250 μmol) is set to react with a solution of HCl 1N (2 eq) in water (qsp 1.25 mL) for 1 h at room temperature. An aqueous solution of NaOH 0.05N is also required to neutralise the reaction medium (5 mL).
The solution of the compound to be tested (625 μL—final concentration in the medium=10 mM) is then set to react with the solution of MGO or of MDA prepared extemporaneously (125 μL—final concentration in the medium=20 mM) in the presence of NaOH 0.05 N (0.5 mL). […]
A sampling of each mixture (100 μL) is taken at regular intervals of time (0.25; 0.5; 1; 5 and 24 h) and stored at −20° C. in order to stop the reaction. […] The proportion of adducts formed with the MGO or MDA (generally, tR=4.1 to 6.8 min) is then measured in relation to the quantity of remaining free scavenger (generally, tR=0.8 to 4.6 min) after measurement of the area under the curve of the corresponding peaks on the UV spectrum (measurements taken for a representative sample).

[5] = PC12, pretreated 30 min with 10 or 100 μM, then 1 mM MGO

Row | SMILES | anti-apoptotic properties [1] | anti-apoptotic properties [2] | anti-apoptotic properties [3, 5] | anti-apoptotic properties ([3]; PC12, pretreated 1 h, 100 μM, 1 mM MGO, three independent experiments in triplicate) | adducts with the MDA with regards to the free scavenger [4]
1 | NCC(N)CCC(=O)NCCCn1cccc(O)c1=O (centres unmarked) [Compound 37c, 4,5-diamino-N-(3-(3-hydroxy-2-oxopyridin-1(2H)-yl)propyl)pentanamide] | very interesting anti-apoptotic properties starting at 10 μM | promising anti-apoptotic properties at 100 μM | very interesting anti-apoptotic properties starting at 10 μM | confirmed | 
2 | NCC(N)CCCCNC(=O)CCn1cccc(O)c1=O (centres unmarked) [Compound 37b, N-(5,6-diaminohexyl)-3-(3-hydroxy-2-oxopyridin-1(2H)-yl)propanamide] |  | promising anti-apoptotic properties at 100 μM |  |  | 
3 | COc1cc(/C=C/C(=O)N2CCN(C(=O)CCC(N)CN)CC2)ccc1O (centres unmarked) [Compound 29a, (E)-4,5-diamino-1-(4-(3-(4-hydroxy-3-methoxyphenyl)acryloyl)piperazin-1-yl)pentan-1-one] |  |  |  |  | majority presence of AdD
4 | NCC(N)CCCCNC(=O)c1cc(O)c(O)c(O)c1 (centres unmarked) [Compound 30b, N-(5,6-diaminohexyl)-3,4,5-trihydroxybenzamide] | very interesting anti-apoptotic properties starting at 10 μM |  | this trend is confirmed at 100 μM |  | 
